Data as given in patent US20190112317A1, “ACTIVATORS OF AUTOPHAGIC FLUX AND PHOSPHOLIPASE D AND CLEARANCE OF PROTEIN AGGREGATES INCLUDING TAU AND TREATMENT OF PROTEINOPATHIES” (The Trustees of Columbia University in the City of New York, priority 2015, published 2019).

Assay: Photodiode array (PDA) detection of compound in mouse brain
Assay type: in vivo
Details: PDA spectrum, FIG. 1
Source text: FIG. 1 is a graph showing a photodiode array (PDA) spectrum of WHYKD8 in mouse brain.
A photodiode array (PDA) was used to detect WHYKD8 in mouse brain (FIG. 1).

Oc1ccc(CCNc2ncnc3ccc(Cl)cc23)cc1 [WHYKD8]
Detection in mouse brain: readily detected
